Measured values: patent US20260083728A1, “COMPOUNDS FOR TREATING INFECTIONS WITH PARASITIC PROTOZOA” (OHIO STATE INNOVATIION FOUNDATION, priority 2022, published 2026)

Experiments:
[1] = system: L. donovani LV82 promastigotes; experiment: Promastigote assay (proliferation); type: cell-based; details: Leishmania donovani, n ≥ 3 independent experiments
Method: Promastigote assay. The effect of the compounds on the proliferation of Leishmania donovani LV82 strain parasites (MHOM/ET/67:LV82) was carried out as outlined by Feng et al.^26

J774 macrophages = experiment: J774 macrophage assay; type: cell-based; details: Mus musculus; J774 murine macrophages; n ≥ 3 independent experiments
Method: J774 macrophage assay. This assay was performed as reported by Zhu et al.^27

[2] = system: intracellular L. donovani LV82 parasites; experiment: L. donovani-infected macrophage assay (high content imaging); type: cell-based, Leishmania donovani; details: for effect on intracellular parasites: at non-toxic concentrations
Text: (§1) Evaluation in an infected macrophage model. Four of the compounds described above were selected for evaluation in an L. donovani infected macrophage model. […] An image-based assay employing murine peritoneal macrophages as host cells and DAPI as an indicator that was based on assays reported previously in the literature^23-24 was used to evaluate these compounds.
(§2) L. donovani-infected macrophage assay. The efficacy of selected target compounds against intracellular L. donovani LV82 parasites was conducted using murine peritoneal macrophages as the host cell in a high content imaging assay essentially as described by Joice et al.^24 and Abdelhameed et al.^28, with the following modifications. The density of peritoneal macrophages was 5×10^4 host cells/well, with the parasite/macrophage ratio remaining at 5:1. The concentration of 4,6-diamidino-2-phenylindole (DAPI) employed for nuclear staining was 4 μM. […] For the quantification of the infection, macrophage nuclei were selected first by DAPI staining with area larger than 30 μm^2. The cytoplasm was selected consequentially based on the nuclei with the digital phase contrast (DPC) channel. Parasites in the cytoplasm were selected based on relative intensity. Parasites per macrophage in each well were exported to a CSV file to generate dose responses, with data analysis performed as described by Joice et al.^24

L. donovani CYP5122A1 = L. donovani CYP5122A1 (Leishmania donovani, UniProt Q2XQE3); experiment: Leishmania CYP5122A1 inhibition assay; type: biochemical; details: comparator 18a
Sequence of L. donovani CYP5122A1 (Q2XQE3 entry or part of it): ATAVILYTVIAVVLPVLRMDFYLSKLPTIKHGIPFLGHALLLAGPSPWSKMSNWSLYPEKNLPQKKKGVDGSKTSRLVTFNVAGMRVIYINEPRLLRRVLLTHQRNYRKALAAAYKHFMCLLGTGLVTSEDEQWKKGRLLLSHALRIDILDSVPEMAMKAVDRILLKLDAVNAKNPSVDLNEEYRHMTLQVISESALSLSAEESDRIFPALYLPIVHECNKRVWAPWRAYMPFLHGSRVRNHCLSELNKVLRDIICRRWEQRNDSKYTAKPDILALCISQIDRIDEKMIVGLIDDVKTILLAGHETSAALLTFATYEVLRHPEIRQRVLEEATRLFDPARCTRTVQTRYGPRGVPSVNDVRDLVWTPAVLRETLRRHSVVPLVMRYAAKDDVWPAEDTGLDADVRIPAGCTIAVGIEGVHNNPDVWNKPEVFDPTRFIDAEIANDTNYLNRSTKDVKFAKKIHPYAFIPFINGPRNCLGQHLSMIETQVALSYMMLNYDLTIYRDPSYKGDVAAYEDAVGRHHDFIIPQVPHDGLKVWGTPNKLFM
Method: (§3) Leishmania CYP51 and CYP5122A1 assays. The cloning, expression, purification, and inhibition assays performed with L. donovani CYP51 and CYP5122A1 were conducted as described in Wang et al.^19

[3] = system: murine peritoneal macrophages; experiment: Host cell toxicity in the infected macrophage assay; type: cell-based; details: for host cell toxicity: 25 μM and below; for toxicity to host cells: 50 μM
Text: as §1, §2

L. donovani CYP51 = L. donovani CYP51 (Leishmania donovani, UniProt A0A3S7WRS7); experiment: Leishmania CYP51 inhibition assay; type: biochemical; details: comparator 18a
Sequence of L. donovani CYP51 (A0A3S7WRS7 entry or part of it): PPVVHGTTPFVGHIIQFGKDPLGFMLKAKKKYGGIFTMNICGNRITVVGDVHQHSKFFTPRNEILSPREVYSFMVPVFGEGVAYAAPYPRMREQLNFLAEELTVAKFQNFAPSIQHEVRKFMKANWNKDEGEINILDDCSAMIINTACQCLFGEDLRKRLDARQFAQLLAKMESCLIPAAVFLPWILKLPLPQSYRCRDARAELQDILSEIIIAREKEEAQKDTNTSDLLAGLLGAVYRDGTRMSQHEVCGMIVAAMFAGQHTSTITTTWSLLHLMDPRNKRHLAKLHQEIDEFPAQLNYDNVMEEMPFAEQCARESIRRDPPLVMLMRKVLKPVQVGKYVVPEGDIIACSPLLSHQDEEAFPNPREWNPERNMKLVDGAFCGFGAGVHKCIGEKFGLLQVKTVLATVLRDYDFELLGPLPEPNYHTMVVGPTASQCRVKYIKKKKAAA
Method: as §3

[4] = murine peritoneal macrophages as host cells, n=3 determinations

SMILES	EC50 [1]	further results
CC(C)Oc1cccc(NC(=O)N2CCN(Cc3ccncc3)CC2)c1 [Compound 4l, N-(3-isopropoxyphenyl)-4-(pyridin-4-ylmethyl)piperazine-1-carboxamide]	> 50 µM	
O=C(Nc1ccc(OCc2cc(C(F)(F)F)cc(C(F)(F)F)c2)cc1)N1CCN(CCc2ccccc2)CC1 [Compound 18r, N-(4-((3,5-bis(trifluoromethyl)benzyl)oxy)phenyl)-4-phenethylpiperazine-1-carboxamide]	> 12.5 µM	
O=C(Nc1cccc(F)c1)N1CCN(Cc2ccncc2)CC1 [Compound 4q, N-(3-fluorophenyl)-4-(pyridin-4-ylmethyl)piperazine-1-carboxamide]	> 100 µM	
Cc1cc(NC(=O)N2CCN(Cc3ccncc3)CC2)cc(C)c1C [Compound 4f, 4-(pyridin-4-ylmethyl)-N-(3,4,5-trimethylphenyl)piperazine-1-carboxamide]	> 50 µM	
CC(C)(C)c1cccc(NC(=O)N2CCN(Cc3ccncc3)CC2)c1 [Compound 4g, N-(3-(tert-butyl)phenyl)-4-(pyridin-4-ylmethyl)piperazine-1-carboxamide]		EC50 (J774 macrophages): > 50 µM; effect on intracellular parasites [2]: little effect
O=C(Nc1ccccc1Cl)N1CCN(Cc2ccncc2)CC1 [Compound 4m, N-(2-chlorophenyl)-4-(pyridin-4-ylmethyl)piperazine-1-carboxamide]	> 100 µM	
O=C(Nc1ccc(OCc2cc(C(F)(F)F)cc(C(F)(F)F)c2)cc1)N1CCN(CCn2cccn2)CC1 [Compound 18o, 4-(2-(1H-pyrazol-1-yl)ethyl)-N-(4-((3,5-bis(trifluoromethyl)benzyl)oxy)phenyl)piperazine-1-carboxamide]	30 µM	
COc1cc(NC(=O)N2CCN(Cc3ccncc3)CC2)cc(OC)c1 [Compound 4k, N-(3,5-dimethoxyphenyl)-4-(pyridin-4-ylmethyl)piperazine-1-carboxamide]	> 100 µM	
O=C(Nc1cc(F)cc(F)c1)N1CCN(Cc2ccncc2)CC1 [Compound 4s, N-(3,5-difluorophenyl)-4-(pyridin-4-ylmethyl)piperazine-1-carboxamide]	> 100 µM	
O=C(Nc1ccc(F)cc1)N1CCN(Cc2ccncc2)CC1 [Compound 4r, N-(4-fluorophenyl)-4-(pyridin-4-ylmethyl)piperazine-1-carboxamide]	> 100 µM	
O=C(Nc1cc(C(F)(F)F)cc(C(F)(F)F)c1)N1CCN(Cc2ccncc2)CC1 [Compound 4v, N-(3,5-bis(trifluoromethyl)phenyl)-4-(pyridin-4-ylmethyl)piperazine-1-carboxamide]	~10 µM	effect on intracellular parasites [2]: little effect
COc1ccc(CCN2CCN(C(=O)Nc3ccc(OCc4cc(C(F)(F)F)cc(C(F)(F)F)c4)cc3)CC2)cc1 [Compound 18x, N-(4-((3,5-bis(trifluoromethyl)benzyl)oxy)phenyl)-4-(4-methoxyphenethyl)piperazine-1-carboxamide]		EC50 (J774 macrophages): 8.3 µM
O=C(Nc1ccccc1)N1CCN(Cc2ccncc2)CC1 [Compound 4b, N-phenyl-4-(pyridin-4-ylmethyl)piperazine-1-carboxamide]	> 100 µM	
Cc1ccc(NC(=O)N2CCN(Cc3ccncc3)CC2)cc1 [Compound 4e, 4-(Pyridin-4-ylmethyl)-N-(p-tolyl)piperazine-1-carboxamide]	> 100 µM	
O=C(Nc1ccc(OCc2cc(C(F)(F)F)cc(C(F)(F)F)c2)cc1)N1CCN(CCCc2ccccc2)CC1 [Compound 18ab, N-(4-((3,5-bis(trifluoromethyl)benzyl)oxy)phenyl)-4-(3-phenylpropyl)piperazine-1-carboxamide]	> 50 µM	
O=C(Nc1ccc(OCc2cc(C(F)(F)F)cc(C(F)(F)F)c2)cc1)N1CCN(CCc2ccncc2)CC1 [Compound 18e, N-(4-((3,5-bis(trifluoromethyl)benzyl)oxy)phenyl)-4-(2-(pyridin-4-yl)ethyl)piperazine-1-carboxamide]		increase in inhibitory potency against CYP5122A1 compared to hit compound 18a (L. donovani CYP5122A1): 3.4 fold; EC50 ([2]; Leishmania donovani, Peritoneal macrophage, murine peritoneal macrophages as host cells, n=3 determinations, read-out: EC50 against intracellular L. donovani): 4 µM; EC50 against intracellular L. donovani [2, 4]: low micromolar range; host cell toxicity [3]: lower; toxicity to host cells [3]: exhibited toxicity to host cells
CC(C)(C)c1cc(COc2ccc(NC(=O)N3CCN(CCc4ccncc4)CC3)cc2)cc(C(C)(C)C)c1 [Compound 18i, N-(4-((3,5-di-tert-butylbenzyl)oxy)phenyl)-4-(2-(pyridin-4-yl)ethyl)piperazine-1-carboxamide]		increase in inhibitory potency against CYP5122A1 compared to hit compound 18a (L. donovani CYP5122A1): 2.2 fold; EC50 against intracellular L. donovani [2, 4]: low micromolar range; host cell toxicity [3]: lower; toxicity to host cells [3]: exhibited toxicity to host cells
Cc1ccccc1NC(=O)N1CCN(Cc2ccncc2)CC1 [Compound 4c, 4-(Pyridin-4-ylmethyl)-N-(o-tolyl)piperazine-1-carboxamide]	> 100 µM	
Cc1cccc(NC(=O)N2CCN(Cc3ccncc3)CC2)c1 [Compound 4d, 4-(Pyridin-4-ylmethyl)-N-(m-tolyl)piperazine-1-carboxamide]	> 100 µM	
O=C(Nc1ccc(C(F)(F)F)cc1)N1CCN(Cc2ccncc2)CC1 [Compound 4u, 4-(Pyridin-4-ylmethyl)-N-(4-(trifluoromethyl)phenyl)piperazine-1-carboxamide]	> 50 µM	
COc1ccc(NC(=O)N2CCN(Cc3ccncc3)CC2)cc1 [Compound 4j, N-(4-methoxyphenyl)-4-(pyridin-4-ylmethyl)piperazine-1-carboxamide]	> 100 µM	
Cc1cc(C)cc(NC(=O)N2CCN(Cc3ccncc3)CC2)c1 [Compound 4a, N-(3,5-dimethylphenyl)-4-(pyridin-4-ylmethyl)piperazine-1-carboxamide]	> 50 µM	
COc1cc(COc2ccc(NC(=O)N3CCN(CCc4ccncc4)CC3)cc2)cc(OC)c1 [Compound 18g, N-(4-((3,5-dimethoxybenzyl)oxy)phenyl)-4-(2-(pyridin-4-yl)ethyl)piperazine-1-carboxamide]		decrease in activity against CYP51 compared to hit compound 18a (L. donovani CYP51): 1.8 fold; decrease in potency against CYP5122A1 compared to hit compound 18a (L. donovani CYP5122A1): 3.0 fold
O=C(Nc1ccc(Cl)cc1)N1CCN(Cc2ccncc2)CC1 [Compound 4o, N-(4-chlorophenyl)-4-(pyridin-4-ylmethyl)piperazine-1-carboxamide]	> 100 µM	
O=C(Nc1cccc(Cl)c1)N1CCN(Cc2ccncc2)CC1 [Compound 4n, N-(3-chlorophenyl)-4-(pyridin-4-ylmethyl)piperazine-1-carboxamide]	> 100 µM	
O=C(Nc1cccc(C(F)(F)F)c1)N1CCN(Cc2ccncc2)CC1 [Compound 4t, 4-(Pyridin-4-ylmethyl)-N-(3-(trifluoromethyl)phenyl)piperazine-1-carboxamide]	48 µM	
O=C(Nc1ccc(OCc2cc(C(F)(F)F)cc(C(F)(F)F)c2)cc1)N1CCN(CCn2cncn2)CC1 [Compound 18q, 4-(2-(1H-1,2,4-triazol-1-yl)ethyl)-N-(4-((3,5-bis(trifluoromethyl)benzyl)oxy)phenyl)piperazine-1-carboxamide]	> 50 µM	EC50 (J774 macrophages): > 50 µM
COc1cccc(NC(=O)N2CCN(Cc3ccncc3)CC2)c1 [Compound 4i, N-(3-methoxyphenyl)-4-(pyridin-4-ylmethyl)piperazine-1-carboxamide]	> 100 µM	
